What was measured:
[1] = biological target: T1, calf intestinal musosa adenosine deaminase (Bos taurus, UniProt P56658); assay: Adenosine deaminase activity inhibition; assay type: biochemical; settings: 80 µM adenosine, pH 7.0, 10 minutes at 37°C
T1 construct: calf intestinal musosa adenosine deaminase; from tissue; host or cells: calf intestinal mucosa
T1 sequence (P56658 1-363): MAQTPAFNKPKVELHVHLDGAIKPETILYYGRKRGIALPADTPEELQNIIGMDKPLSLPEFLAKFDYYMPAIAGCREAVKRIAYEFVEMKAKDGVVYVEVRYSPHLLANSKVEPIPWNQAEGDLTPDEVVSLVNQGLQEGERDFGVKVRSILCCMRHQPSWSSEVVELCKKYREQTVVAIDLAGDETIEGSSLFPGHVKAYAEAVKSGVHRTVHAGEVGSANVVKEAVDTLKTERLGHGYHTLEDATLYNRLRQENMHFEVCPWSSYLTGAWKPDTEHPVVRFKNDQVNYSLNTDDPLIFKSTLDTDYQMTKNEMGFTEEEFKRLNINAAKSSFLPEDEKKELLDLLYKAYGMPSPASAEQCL
Protocol: Different concentrations of the test compounds were incubated in the assay mixture for 10 minutes at 37°C. The reaction was monitored continuously for oxidation of NADH from the change in absorbance at 340 nm.

[2] = cited from earlier work

IC50 [1] [µM] | SMILES | half life of adenosine in blood [2] [s]
1400 | CO[C@@H]1[C@H](O)[C@@H](CO)O[C@H]1n1cnc(C(N)=O)c1N [Compound No. 20, 5-Amino-1-(2-O-methyl-β-D-ribofuranosyl)-imidazole-4-carboxamide] | 
 | Nc1ncnc2c1ncn2[C@@H]1O[C@H](CO)[C@@H](O)[C@H]1O [adenosine] | < 10
510 | CCO[C@@H]1[C@H](O)[C@@H](CO)O[C@H]1n1cnc(C(N)=O)c1N [Compound No. 34, 5-amino-1-(2-O-ethyl-β-D-ribofuranosyl)-4-imidazole carboxamide] | 

— patent EP0495091B1 (Metabasis Therapeutics Inc., priority 1990, dated 1992)
